The NIST ThermoML archive (doi:10.1016/j.fluid.2018.08.012)
Numbers after ± are expanded uncertainties.

Test: mn = molality of the nth substance listed, in mol/kg
Conditions: Fluid (supercritical or subcritical phases), Vibrating tube method, m1 = 0.2867

O=O [oxygen] + O=C=O
Conditions	mass density [kg/m3]
324.14 K, 2522.5 kPa	45.49 ± 0.08
324.14 K, 2531.8 kPa	45.7 ± 0.08
324.14 K, 4992.7 kPa	102.94 ± 0.19
324.14 K, 4998.9 kPa	103.15 ± 0.19
324.14 K, 7566.1 kPa	190.74 ± 0.49
324.14 K, 7573.3 kPa	191.05 ± 0.49
324.14 K, 10066 kPa	353.17 ± 1.1
324.14 K, 10098 kPa	356.14 ± 1.1
324.14 K, 12475 kPa	568.33 ± 1.4
324.14 K, 12572 kPa	574.14 ± 1.4
324.14 K, 15029 kPa	672.53 ± 1.2
324.14 K, 15098 kPa	674.53 ± 1.2
324.14 K, 17553 kPa	728.46 ± 0.99
324.14 K, 17623 kPa	729.72 ± 0.99
324.14 K, 20076 kPa	766.9 ± 0.87
324.14 K, 20148 kPa	767.83 ± 0.87
324.14 K, 22597 kPa	796.51 ± 0.79
324.14 K, 22667 kPa	797.24 ± 0.8
324.14 K, 25116 kPa	820.6 ± 0.74
324.14 K, 25186 kPa	821.19 ± 0.74
324.14 K, 27631 kPa	841.02 ± 0.72
324.14 K, 27694 kPa	841.49 ± 0.72
324.14 K, 30138 kPa	858.75 ± 0.71
324.14 K, 30191 kPa	859.1 ± 0.71
324.14 K, 32647 kPa	874.55 ± 0.67
324.14 K, 32683 kPa	874.75 ± 0.67
324.14 K, 35167 kPa	888.83 ± 0.72
324.14 K, 35203 kPa	889.04 ± 0.72
349.64 K, 2302.3 kPa	37.34 ± 0.07
349.64 K, 2512.6 kPa	41.14 ± 0.07
349.64 K, 4999.4 kPa	89.28 ± 0.15
349.64 K, 5056.2 kPa	90.61 ± 0.16
349.64 K, 7565.3 kPa	151.08 ± 0.29
349.64 K, 7587.3 kPa	151.35 ± 0.29
349.64 K, 10124 kPa	230.35 ± 0.59
349.64 K, 10132 kPa	230.46 ± 0.59
349.64 K, 12648 kPa	331.76 ± 1
349.64 K, 12654 kPa	331.87 ± 1
349.64 K, 15179 kPa	445.16 ± 1.3
349.64 K, 15184 kPa	445.19 ± 1.3
349.64 K, 17705 kPa	539.74 ± 1.3
349.64 K, 17709 kPa	539.82 ± 1.3
349.64 K, 20232 kPa	608.22 ± 1.2
349.64 K, 20234 kPa	608.3 ± 1.2
349.64 K, 22753 kPa	658.24 ± 1.1
349.64 K, 22754 kPa	658.22 ± 1.1
349.64 K, 25272 kPa	696.75 ± 1
349.64 K, 25273 kPa	696.87 ± 1
349.64 K, 27781 kPa	727.9 ± 0.99
349.64 K, 27787 kPa	728.07 ± 0.99
349.64 K, 30280 kPa	753.96 ± 0.96
349.64 K, 30284 kPa	754.07 ± 0.96
349.64 K, 32783 kPa	776.37 ± 0.94
349.64 K, 32788 kPa	776.48 ± 0.94
349.64 K, 35276 kPa	795.97 ± 0.96
349.64 K, 35282 kPa	796.06 ± 0.96
375.03 K, 2543.1 kPa	38.14 ± 0.07
375.03 K, 2546.2 kPa	38.31 ± 0.07
375.03 K, 5059.3 kPa	80.85 ± 0.13
375.03 K, 5060.3 kPa	80.97 ± 0.13
375.03 K, 7540.3 kPa	129.17 ± 0.23
375.03 K, 7545.1 kPa	129.65 ± 0.23
375.03 K, 10091 kPa	186.78 ± 0.38
375.03 K, 10093 kPa	186.66 ± 0.38
375.03 K, 12606 kPa	251.89 ± 0.59
375.03 K, 12615 kPa	252.03 ± 0.59
375.03 K, 15138 kPa	324.48 ± 0.84
375.03 K, 15156 kPa	324.83 ± 0.84
375.03 K, 17663 kPa	398.41 ± 1.1
375.03 K, 17683 kPa	398.81 ± 1.1
375.03 K, 20185 kPa	466.78 ± 1.2
375.03 K, 20209 kPa	467.22 ± 1.2
375.03 K, 22704 kPa	525.43 ± 1.3
375.03 K, 22730 kPa	525.92 ± 1.3
375.03 K, 25225 kPa	574.34 ± 1.3
375.03 K, 25249 kPa	574.81 ± 1.3
375.03 K, 27742 kPa	614.94 ± 1.2
375.03 K, 27764 kPa	615.3 ± 1.2
375.03 K, 30257 kPa	648.94 ± 1.2
375.03 K, 30265 kPa	649.12 ± 1.2
375.03 K, 32764 kPa	678.12 ± 1.2
375.03 K, 32769 kPa	678.04 ± 1.2
375.03 K, 35257 kPa	703.36 ± 1.3
375.03 K, 35260 kPa	703.21 ± 1.3
400.19 K, 2573.8 kPa	35.12 ± 0.07
400.19 K, 2574.8 kPa	35.31 ± 0.07
400.19 K, 5072.3 kPa	73.3 ± 0.12
400.19 K, 5100.4 kPa	73.64 ± 0.12
400.19 K, 7612.6 kPa	115.55 ± 0.2
400.19 K, 7616.5 kPa	115.71 ± 0.2
400.19 K, 10127 kPa	162.27 ± 0.31
400.19 K, 10138 kPa	162.47 ± 0.31
400.19 K, 12592 kPa	211.79 ± 0.46
400.19 K, 12600 kPa	212.51 ± 0.46
400.19 K, 15121 kPa	265.98 ± 0.64
400.19 K, 15134 kPa	266.82 ± 0.64
400.19 K, 17648 kPa	321.85 ± 0.83
400.19 K, 17661 kPa	322.66 ± 0.83
400.19 K, 20173 kPa	377.08 ± 1
400.19 K, 20186 kPa	377.95 ± 1
400.19 K, 22693 kPa	429.17 ± 1.2
400.19 K, 22707 kPa	430.08 ± 1.2
400.19 K, 25212 kPa	476.61 ± 1.3
400.19 K, 25228 kPa	477.53 ± 1.3
400.19 K, 27728 kPa	518.93 ± 1.4
400.19 K, 27743 kPa	519.82 ± 1.4
400.19 K, 30241 kPa	556.24 ± 1.4
400.19 K, 30253 kPa	557.1 ± 1.4
400.19 K, 32739 kPa	588.97 ± 1.4
400.19 K, 32757 kPa	589.89 ± 1.4
400.19 K, 35235 kPa	617.97 ± 1.4
400.19 K, 35247 kPa	618.78 ± 1.4
